Measured values taken from US7582681B2, “Synergistic mixtures of 1,2-alkane diols” (Symrise GmbH & Co. KG, priority 2002, dated 2009).
≈ marks a conversion by molar mass, not a printed value.

System: Propionibacterium acnes ATCC 11829
Test: MIC, agar dilution method
Format: cell-based
Settings: Cutibacterium acnes, ATCC11829, anaerobic, Wilkins-Chalgren agar, 72 h at 30° C.
Procedure: Petri dishes 9.0 cm in diameter were charged with 13.5 ml freshly prepared Mueller-Hinton agar (Merck, Ref. 1.05437 or Wilkins-Chalgren agar boullion, Oxoid, Ref. CM 643, supplemented with log agar-agar/liter) kept liquid at 50° C., to which the various concentrations of the diluted samples were added in 10% (V/V)=1.5 ml. Mueller-Hinton agar that contained 3% Tween80 (Merck, Ref. 8.22 187) was used for the test germ Malassezia furfur. In each case 5 ml of the samples were diluted in distilled water and made up to 10 ml. The further test concentrations of the particular dilution series, which were prepared in the form of geometric series, were prepared by progressive 1:2 dilution of this batch with distilled water. […] Two agar plates were poured per test concentration and nutrient medium. After solidification and drying (approx. 1 h at 37° C.), the test plates were inoculated in point form with, in each case, 1 μl of the test germ suspensions listed below. To check purity and identity the bacteria that grow aerobically (Brevibacterium epidermidis, Corynebacterium xerosis, Staphylococcus epidermidis) were [lacuna] on Columbia blood agar (BioMérieux, Ref. 43049). […] Minimal, barely visible growth or few small individual colonies were evaluated as inhibition.

MIC [mg/mL]	Structure (SMILES)
25 (≈ 212 mM)	CCCCC(O)CO (centres unmarked) [HE3, 1,2-hexanediol]
6.25 (≈ 42.7 mM)	CCCCCCC(O)CO (centres unmarked) [OC3, 1,2-octanediol]
